Tests used:
[1] = tested on: human prostate cancer cells (PC3); assay: Cytotoxicity by SRB assay; assay type: cell-based; details: 0.01 μM to 100 μM for 72 h
From the text: (§1) The anticancer activity of the described synthesized compounds against highly aggressive androgen-independent metastatic human prostate cancer cells (PC3) and osteosarcoma (MG-63) cells. The human prostate cancer cells (PC3) and human osteosarcoma cells (MG-63) were obtained from Nawah Scientific Inc. (Mokatam, Cairo, Egypt) and cultured in DMEM (Dulbecco's modified eagle's medium), Gibco, USA, supplemented with fetal bovine serum (FBS) at a concentration of 10% and 100 U/mL of penicillin and streptomycin (PS). The Cells were incubated at 37° C. in a humidified environment that contained 5% CO2.
(§2) Cells were seeded in 96-well plates as aliquots of 100 μL cell suspension and incubated in a complete media for 24 h. afterward, cells were treated with 3-(3-chlorophenyl)-5-((2-isopropyl-5-methylphenoxy)methyl)-1,2,4-oxadiazole at diverse concentrations ranging from 0.01 μM to 100 μM for 72 h. Then, cells were fixed at 4° C. for one hour with 150 μL of 10% trichloroacetic acid (TCA). […] Then, 150 μL of Tris pH 10.5 (10 mM) was added, and the absorbance was measured at 540 nm using a BMG LABTECH®-FLUOstar Omega microplate reader (Ortenberg, Germany). Half maximal inhibitory concentrations (IC50) values were calculated for each experiment using GraphPad Prism 6 software. […]
(§3) The inhibition was calculated using the following equation: Inhibition %=100−Average Viability

[2] = tested on: human osteosarcoma cells (MG-63); assay: Cytotoxicity by SRB assay; assay type: cell-based; details: MG-63 cells, 0.01 μM to 100 μM for 72 h
From the text: as §1, §2, §3

[3] = tested on: Aspergillus flavus; assay: Agar plate disc-diffusion, antifungal inhibition zone; assay type: cell-based; details: 72 h for fungi
Protocol: (§4) The agar plate disc-diffusion method was applied. […] The discs were then placed onto the surface of agar plates (nutrient agar for bacteria and Sabouraud's dextrose agar for fungi) seeded with the test organism. Each plate contained 15 mL of the agar medium, previously seeded with 0.2 mL of the broth culture of each organism pregrown for 18 hours. The plates were incubated at 37° C. for 48 h, and 72 h for fungi. The inhibition zones were measured in mm. Discs impregnated with DMSO were used as a control, and its inhibition zone was subtracted from the tested compound actual inhibition zone.

[4] = tested on: Chrysosporium keratinophilum; assay: as above; assay type: cell-based; details: 72 h for fungi
Protocol: (§5) The agar plate disc-diffusion method was applied. Sterilized filter papers (6 mm in diameter) were wetted with 10 μL of a solution of 3-(3-chlorophenyl)-5-((2-isopropyl-5-methylphenoxy)methyl)-1,2,4-oxadiazole (3) to be tested, containing 10 mg/mL in DMSO, and the discs were allowed to air dry. The discs were then placed onto the surface of agar plates (nutrient agar for bacteria and Sabouraud's dextrose agar for fungi) seeded with the test organism. Each plate contained 15 mL of the agar medium, previously seeded with 0.2 mL of the broth culture of each organism pregrown for 18 hours. The plates were incubated at 37° C. for 48 h, and 72 h for fungi. The inhibition zones were measured in mm. Discs impregnated with DMSO were used as a control, and its inhibition zone was subtracted from the tested compound actual inhibition zone.

[5] = tested on: Bacillus cereus; assay: Agar plate disc-diffusion, antibacterial inhibition zone; assay type: cell-based; details: 37° C., 48 h
Protocol: as §4

[6] = tested on: Pseudomonas aeruginosa; assay: as above; assay type: cell-based; details: 37° C., 48 h
Protocol: as §4

[7] = tested on: Escherichia coli; assay: as above; assay type: cell-based; details: 37° C., 48 h
Protocol: as §4

[8] = tested on: Staphylococcus aureus; assay: as above; assay type: cell-based; details: 37° C., 48 h
Protocol: as §4

[9] = tested on: different microbes; assay: Antimicrobial activity, overall statement (agar plate disc-diffusion); assay type: cell-based; details: against different microbes (bacteria and fungi of Tables 1 and 2)
Protocol: as §5

[10] = A = concentration of comp. = 10,000 μL
[11] = B = concentration of comp. = 30,000 μL
[12] = C = concentration of comp. = 50,000 μL

Structure (SMILES)	inhibition zone [3, 10]	inhibition zone [3, 11]	inhibition zone [3, 12]	inhibition zone [4, 10]	inhibition zone [4, 11]	inhibition zone [4, 12]	inhibition zone [5, 10]	inhibition zone [5, 11]	inhibition zone [5, 12]	inhibition zone [6, 10]	inhibition zone [6, 11]	inhibition zone [6, 12]	inhibition zone [7, 10]	inhibition zone [7, 11]	inhibition zone [7, 12]	inhibition zone [8, 10]	inhibition zone [8, 11]	inhibition zone [8, 12]	other results
Cc1ccc(C(C)C)c(OCc2nc(-c3cccc(Cl)c3)no2)c1 [3-(3-chlorophenyl)-5-((2-isopropyl-5-methylphenoxy)methyl)-1,2,4-oxadiazole]																			antiproliferative activities [1]: excellent antiproliferative activities; antiproliferative activities [2]: excellent antiproliferative activities
O=C(O)c1cn(C2CC2)c2cc(N3CCNCC3)c(F)cc2c1=O [Cip., ciprofloxacin, reference compound]	29 mm	30 mm	42 mm	29 mm	30 mm	53 mm	29 mm	30 mm	42 mm	29 mm	30 mm	53 mm	30 mm	39 mm	60 mm	43 mm	44 mm	53 mm	
Cc1ccc(C(C)C)c(OCc2nc(-c3cccc(Cl)c3)no2)c1 [Compound 3, 3-(3-chlorophenyl)-5-((2-isopropyl-5-methylphenoxy)methyl)-1,2,4-oxadiazole]	18 mm	20 mm	29 mm	27 mm	29 mm	48 mm	30 mm	31 mm	39 mm	24 mm	28 mm	38 mm	24 mm	35 mm	50 mm	13 mm	17 mm	20 mm	melting point: 151 to 153 °C; antimicrobial activities [9]: excellent antimicrobial activities
